According to PMC8667897, “Natural inspired piperine-based ureas and amides as novel antitumor agents towards breast cancer” (Journal of Enzyme Inhibition and Medicinal Chemistry, 2021):

Target: T1, VEGFR-2 (Homo sapiens, UniProt P35968)
T1 construct: gene KDR
Assay: in vitro VEGFR-2 enzyme inhibition assay
Type: biochemical

T1 sequence (P35968 20-1356): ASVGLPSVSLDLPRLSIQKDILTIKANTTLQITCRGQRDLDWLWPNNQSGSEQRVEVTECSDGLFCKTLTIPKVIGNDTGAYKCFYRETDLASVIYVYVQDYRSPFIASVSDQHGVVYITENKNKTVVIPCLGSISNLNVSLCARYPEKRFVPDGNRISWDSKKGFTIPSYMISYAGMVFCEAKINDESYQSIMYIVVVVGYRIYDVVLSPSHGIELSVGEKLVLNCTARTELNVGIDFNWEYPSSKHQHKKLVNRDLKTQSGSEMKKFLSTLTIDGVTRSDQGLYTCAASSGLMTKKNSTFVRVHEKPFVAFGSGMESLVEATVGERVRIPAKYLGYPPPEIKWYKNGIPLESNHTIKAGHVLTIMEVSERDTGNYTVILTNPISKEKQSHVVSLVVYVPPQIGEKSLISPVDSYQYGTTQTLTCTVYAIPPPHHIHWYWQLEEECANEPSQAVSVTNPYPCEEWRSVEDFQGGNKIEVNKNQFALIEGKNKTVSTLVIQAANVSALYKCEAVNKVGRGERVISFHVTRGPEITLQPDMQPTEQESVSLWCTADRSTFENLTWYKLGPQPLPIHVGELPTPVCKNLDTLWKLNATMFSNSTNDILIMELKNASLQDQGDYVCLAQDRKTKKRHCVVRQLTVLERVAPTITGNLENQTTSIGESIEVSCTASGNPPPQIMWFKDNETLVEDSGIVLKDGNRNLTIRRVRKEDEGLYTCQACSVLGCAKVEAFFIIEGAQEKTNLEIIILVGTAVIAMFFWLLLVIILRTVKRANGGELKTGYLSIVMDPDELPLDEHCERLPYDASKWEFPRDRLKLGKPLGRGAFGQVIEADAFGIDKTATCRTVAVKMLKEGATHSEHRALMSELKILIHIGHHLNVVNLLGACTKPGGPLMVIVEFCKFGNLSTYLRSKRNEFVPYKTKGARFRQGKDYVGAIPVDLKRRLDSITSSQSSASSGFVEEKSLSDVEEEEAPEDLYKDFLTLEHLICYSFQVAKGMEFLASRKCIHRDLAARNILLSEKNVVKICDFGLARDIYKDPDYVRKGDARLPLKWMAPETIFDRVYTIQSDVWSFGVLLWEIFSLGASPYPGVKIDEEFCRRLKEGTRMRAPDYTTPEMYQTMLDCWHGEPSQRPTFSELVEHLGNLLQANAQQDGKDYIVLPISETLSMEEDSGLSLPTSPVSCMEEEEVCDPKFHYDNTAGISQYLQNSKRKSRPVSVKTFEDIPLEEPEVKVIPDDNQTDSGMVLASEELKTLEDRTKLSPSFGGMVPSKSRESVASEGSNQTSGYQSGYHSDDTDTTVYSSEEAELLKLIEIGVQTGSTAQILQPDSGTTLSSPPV

IC50: 231 ± 5 nM
SMILES: O=C(N/C=C/C=C/c1ccc2c(c1)OCO2)Nc1ccc(Cl)cc1 [8q, 1-((1E,3E)-4-(Benzo[d]1,3dioxol-5-yl)buta-1,3-dien-1-yl)-3–(4-chlorophenyl)urea]
